Experimental data from PMC5599477, “Comparative stability of Major Facilitator Superfamily transport proteins” (European Biophysics Journal, 2017).

Legend:
XylE = molecular target: T1, XylE (Escherichia coli, UniProt P0AGF4); test: far-UV circular dichroism at […] nm, GuHCl denaturation with ligand; format: binding; details: 1 mM ligand; 0.35 mg/ml protein; detergent-solubilised; chemical denaturation onset, not an affinity; D/L form not given
T1 construct: 10-His tag (modified pET28a), expressed in E. coli BL21-AI, purified, detergent-solubilised (LacY-WT procedure)
T1 sequence (P0AGF4 1-491): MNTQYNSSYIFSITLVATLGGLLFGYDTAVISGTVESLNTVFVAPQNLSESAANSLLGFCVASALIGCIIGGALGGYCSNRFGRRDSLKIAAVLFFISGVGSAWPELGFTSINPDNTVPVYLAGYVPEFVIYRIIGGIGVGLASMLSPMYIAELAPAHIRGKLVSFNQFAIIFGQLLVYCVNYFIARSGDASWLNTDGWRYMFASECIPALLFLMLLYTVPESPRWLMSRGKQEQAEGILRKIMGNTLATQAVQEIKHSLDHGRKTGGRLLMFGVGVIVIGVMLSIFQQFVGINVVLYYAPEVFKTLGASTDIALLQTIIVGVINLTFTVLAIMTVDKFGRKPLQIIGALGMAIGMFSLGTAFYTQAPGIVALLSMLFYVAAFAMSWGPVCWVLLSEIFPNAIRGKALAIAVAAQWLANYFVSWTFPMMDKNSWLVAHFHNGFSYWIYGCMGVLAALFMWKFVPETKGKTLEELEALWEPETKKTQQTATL

GlpT = molecular target: T2, GlpT (Escherichia coli, UniProt P08194); test: far-UV circular dichroism at […] nm, urea denaturation with ligand; format: binding; details: 50 uM ligand; 0.01 mg/ml protein; detergent-solubilised; 50 mM Tris-HCl pH 7.4; chemical denaturation onset, not an affinity
T2 construct: 10-His tag (modified pET28a), expressed in E. coli BL21-AI, purified, detergent-solubilised (LacY-WT procedure, Tris-HCl pH 7.4)
T2 sequence (P08194 1-452): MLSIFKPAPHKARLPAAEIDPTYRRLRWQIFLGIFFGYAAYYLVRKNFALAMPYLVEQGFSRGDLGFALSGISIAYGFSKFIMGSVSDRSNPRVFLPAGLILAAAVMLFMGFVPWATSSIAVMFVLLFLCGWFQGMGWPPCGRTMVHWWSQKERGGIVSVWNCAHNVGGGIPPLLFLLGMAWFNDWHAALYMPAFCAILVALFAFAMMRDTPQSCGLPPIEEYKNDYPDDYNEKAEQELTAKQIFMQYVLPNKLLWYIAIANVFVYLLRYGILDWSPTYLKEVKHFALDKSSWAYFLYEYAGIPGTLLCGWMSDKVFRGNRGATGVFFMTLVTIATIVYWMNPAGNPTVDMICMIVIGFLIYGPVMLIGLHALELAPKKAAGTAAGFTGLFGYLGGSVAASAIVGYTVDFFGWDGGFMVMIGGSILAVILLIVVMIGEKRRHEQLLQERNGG

Concentration of GuHCl required for unfolding (M) (XylE) [M GuHCl]	Structure (SMILES)	Effect of ligand on stability (GlpT) [M urea]
> 5	OC1OC[C@@H](O)[C@H](O)[C@H]1O (some centres unmarked) [xylose]	
	Cc1ncc(COP(=O)(O)O)c(C=O)c1O [pyridoxal-5-phosphate]	> 6
